From patent US20260274829A1, “NEW E3 UBIQUITIN LIGASE LIGAND, PROTEIN DEGRADATION AGENT AND USE THEREOF” (GLUETACS THERAPEUTICS (SHANGHAI) CO., LTD., priority 2023, published 2026)

These molecules were tested against T1, human Cereblon WT GST-tagged protein (Homo sapiens, UniProt Q96SW2) (assay: CRBN binding, HTRF CEREBLON BINDING kit). Details: CRBN binding, HTRF CEREBLON BINDING kit.
T1 construct: purchased CISBIO 64BDCRBNPEH
In short: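 Binding inhibition was calculated from the 665/620 nm emission ratios, with blank wells and solvent wells as references. Test compounds competed for GST-tagged human Cereblon WT against a Thalidomide-Re reagent paired with GST Eu antibody. Plates were sealed and held at room temperature for 3 hours before the HTRF read.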

T1 sequence (Q96SW2 whole entry): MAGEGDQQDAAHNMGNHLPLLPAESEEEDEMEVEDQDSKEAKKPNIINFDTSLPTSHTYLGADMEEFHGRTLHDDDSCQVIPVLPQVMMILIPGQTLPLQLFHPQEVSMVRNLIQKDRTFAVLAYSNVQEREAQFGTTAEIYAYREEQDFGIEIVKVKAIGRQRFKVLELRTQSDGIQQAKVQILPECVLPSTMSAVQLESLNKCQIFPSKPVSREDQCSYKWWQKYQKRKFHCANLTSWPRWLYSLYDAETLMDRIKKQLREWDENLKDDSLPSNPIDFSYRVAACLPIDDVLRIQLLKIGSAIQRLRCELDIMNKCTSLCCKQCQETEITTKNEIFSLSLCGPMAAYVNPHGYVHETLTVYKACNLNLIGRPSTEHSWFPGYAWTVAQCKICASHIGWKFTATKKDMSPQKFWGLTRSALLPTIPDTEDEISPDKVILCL

SMILES	IC50 [nM]
Cc1cc(Nc2ncc(Cl)c(Nc3ccccc3S(=O)(=O)C(C)C)n2)c(OC(C)C)cc1C1CCN(Cc2cccc(N3CCC(=O)NC3=O)c2)CC1 [GT-07593, 1-(3-((4-(4-((5-chloro-4-((2-(isopropylsulfonyl)phenyl)amino)pyrimidin-2-yl)amino)-5-isopropoxy-2-methylphenyl)piperidin-1-yl)methyl)phenyl)dihydropyrimidine-2,4(1H,3H)-dione]	500 to 1000
Nc1nc(Nc2ccc(S(=O)(=O)N3CCN(Cc4ccc(C5CCC(=O)NC5=O)cc4)CC3)cc2)nn1C(=O)c1c(F)cccc1F (stereo not shown) [GT-06750, 3-(4-((4-((4-((5-amino-1-(2,6-difluorobenzoyl)-1H-1,2,4-triazol-3-yl)amino)phenyl)sulfonyl)piperazin-1-yl)methyl)phenyl)piperidine-2,6-dione]	500 to 1000
COc1ccc2cn(C3CCN(Cc4ccc(C5CCC(=O)NC5=O)cc4)CC3)nc2c1NC(=O)c1cccc(C(F)(F)F)c1 (stereo not shown) [GT-04813, N-(2-(1-(4-(2,6-dioxopiperidin-3-yl)benzyl)piperidin-4-yl)-6-methoxy-2H-indazol-7-yl)-3-(trifluoromethyl)benzamide]	1000 to 1900
CNC(=O)c1ccc(N2C(=S)N(c3ccc(C#N)c(C(F)(F)F)c3)C(=O)C2(C)C)cc1F [Enzalutamide]	> 10000
Cn1cc(-c2cc(S(C)(=O)=O)ccc2OCc2ccc(C3CCC(=O)NC3=O)cc2)c2cc[nH]c2c1=O (stereo not shown) [GT-06415, 3-(4-((2-(6-methyl-7-oxo-6,7-dihydro-1H-pyrrolo[2,3-c]pyridin-4-yl)-4-(methylsulfonyl)phenoxy)methyl)phenyl)piperidine-2,6-dione]	< 500
CN(C)C(=O)c1cc2cnc(Nc3ccc(N4CCN(Cc5ccc(N6CCC(=O)NC6=O)cn5)CC4)cn3)nc2n1C1CCCC1 [GT-06342, 7-cyclopentyl-2-((5-(4-((5-(2,4-dioxotetrahydropyrimidin-1(2H)-yl)pyridin-2-yl)methyl)piperazin-1-yl)pyridin-2-yl)amino)-N,N-dimethyl-7H-pyrrolo[2,3-d]pyrimidine-6-carboxamide]	1000 to 1900
CC(C)(O)c1cc2nn(C3CCN(Cc4ccc(N5CCC(=O)NC5=O)cc4)CC3)cc2cc1NC(=O)c1cccc(C(F)(F)F)n1 [GT-05754, N-(2-(1-(4-(2,4-dioxotetrahydropyrimidin-1(2H)-yl)benzyl)piperidin-4-yl)-6-(2-hydroxypropan-2-yl)-2H-indazol-5-yl)-6-(trifluoromethyl)picolinamide]	500 to 1000
Nc1nnc(-c2ccccc2O)cc1N1CCN(Cc2cccc(N3CCC(=O)NC3=O)c2)CC1 [GT-04962, 1-(3-((4-(3-amino-6-(2-hydroxyphenyl)pyridazin-4-yl)piperazin-1-yl)methyl)phenyl)dihydropyrimidine-2,4(1H,3H)-dione]	1000 to 1900
CC(=O)c1c(C)c2cnc(Nc3ccc(N4CCN(Cc5cccc(N6CCC(=O)NC6=O)c5)CC4)cn3)nc2n(C2CCCC2)c1=O [GT-06577, 1-(3-((4-(6-((6-acetyl-8-cyclopentyl-5-methyl-7-oxo-7,8-dihydropyrido[2,3-d]pyrimidin-2-yl)amino)pyridin-3-yl)piperazin-1-yl)methyl)phenyl)dihydropyrimidine-2,4(1H,3H)-dione]	1000 to 1900

Further lines, results first:

IC50 [nM]	SMILES
1000 to 1900	COc1cc(N2CCC(N(C)Cc3cccc(N4CCC(=O)NC4=O)c3)CC2)ccc1Nc1ncc(Cl)c(Nc2ccccc2P(C)(C)=O)n1 [GT-07616, 1-(3-(((1-(4-((5-chloro-4-((2-(dimethylphosphoryl)phenyl)amino)pyrimidin-2-yl)amino)-3-methoxyphenyl)piperidin-4-yl)(methyl)amino)methyl)phenyl)dihydropyrimidine-2,4(1H,3H)-dione]
1000 to 1900	COc1cc2nn(C3CCN(Cc4cccc(N5CCC(=O)NC5=O)c4)CC3)cc2cc1NC(=O)c1cccc(C(F)(F)F)c1 [GT-04750, N-(2-(1-(3-(2,4-dioxotetrahydropyrimidin-1(2H)-yl)benzyl)piperidin-4-yl)-6-methoxy-2H-indazol-5-yl)-3-(trifluoromethyl)benzamide]
500 to 1000	CN(C)C(=O)c1cc2cnc(Nc3ccc(N4CCC(N(C)Cc5ccc(N6CCC(=O)NC6=O)cc5)CC4)cn3)nc2n1C1CCCC1 [GT-06491, 7-cyclopentyl-2-((5-(4-((4-(2,4-dioxotetrahydropyrimidin-1(2H)-yl)benzyl)(methyl)amino)piperidin-1-yl)pyridin-2-yl)amino)-N,N-dimethyl-7H-pyrrolo[2,3-d]pyrimidine-6-carboxamide]
< 500	CCc1cc2c(cc1N1CCC(N3CCN(Cc4cncc(C5CCC(=O)NC5=O)c4)CC3)CC1)C(C)(C)c1[nH]c3cc(C#N)ccc3c1C2=O (stereo not shown) [GT-07706, 8-(4-(4-((5-(2,6-dioxopiperidin-3-yl)pyridin-3-yl)methyl)piperazin-1-yl)piperidin-1-yl)-9-ethyl-6,6-dimethyl-11-oxo-6,11-dihydro-5H-benzo[b]carbazole-3-carbonitrile]
500 to 1000	O=C1CCN(c2cccc(CN3CCN(c4ccc(Nc5ncc6nc(Nc7ccccc7)n(C7CCCC7)c6n5)cc4)CC3)c2)C(=O)N1 [GT-05838, 1-(3-((4-(4-((9-cyclopentyl-8-(phenylamino)-9H-purin-2-yl)amino)phenyl)piperazin-1-yl)methyl)phenyl)dihydropyrimidine-2,4(1H,3H)-dione]
< 500	COc1cc(N2CCC(N3CCN(Cc4ccc(C5CCC(=O)NC5=O)cc4)CC3)CC2)ccc1Nc1ncc(Cl)c(Nc2ccccc2P(C)(C)=O)n1 (stereo not shown) [GT-07602, 3-(4-((4-(1-(4-((5-chloro-4-((2-(dimethylphosphoryl)phenyl)amino)pyrimidin-2-yl)amino)-3-methoxyphenyl)piperidin-4-yl)piperazin-1-yl)methyl)phenyl)piperidine-2,6-dione]
500 to 1000	COc1cc(N2CCN(Cc3ccc(C4CCC(=O)NC4=O)cn3)CC2)ccc1Nc1ncc(Cl)c(Nc2ccccc2P(C)(C)=O)n1 (stereo not shown) [GT-07713, 3-(6-((4-(4-((5-chloro-4-((2-(dimethylphosphoryl)phenyl)amino)pyrimidin-2-yl)amino)-3-methoxyphenyl)piperazin-1-yl)methyl)pyridin-3-yl)piperidine-2,6-dione]
1000 to 1900	COc1cc(N2CCC(N3CCN(Cc4ccc(C5CCC(=O)NC5=O)cc4)CC3)CC2)c(C)cc1Nc1ncc(Br)c(Nc2ccc3nccnc3c2P(C)(C)=O)n1 (stereo not shown) [GT-05999, 3-(4-((4-(1-(4-((5-bromo-4-((5-(dimethylphosphoryl)quinoxalin-6-yl)amino)pyrimidin-2-yl)amino)-5-methoxy-2-methylphenyl)piperidin-4-yl)piperazin-1-yl)methyl)phenyl)piperidine-2,6-dione]
1000 to 1900	CN1CCN([C@@H]2CCCN(c3cnc(C(N)=O)c(Nc4ccc(C5CCN(Cc6cccc(NC7CCC(=O)NC7=O)c6)CC5)cc4)n3)C2)C1=O (stereo partly drawn) [GT-04804, 3-((4-(1-(3-((2,6-dioxopiperidin-3-yl)amino)benzyl)piperidin-4-yl)phenyl)amino)-5-((R)-3-(3-methyl-2-oxoimidazolidin-1-yl)piperidin-1-yl)pyrazine-2-carboxamide]
500 to 1000	CC(C)(O)c1cc2nc(C3CCN(Cc4cccc(N5CCC(=O)NC5=O)c4)CC3)oc2cc1NC(=O)c1cccc(C(F)(F)F)n1 [GT-05773, N-(2-(1-(3-(2,4-dioxotetrahydropyrimidin-1(2H)-yl)benzyl)piperidin-4-yl)-5-(2-hydroxypropan-2-yl)benzo[d]oxazol-6-yl)-6-(trifluoromethyl)picolinamide]
